# Reference: patent publication US8835470B2, “Mandelamide heterocyclic compounds” (Bristol-Myers Squibb Company, priority 2010, dated 2014)
# Counter-ions that a name gives are not always drawn.
# Key:
# S1P3 = S1P3 (Homo sapiens (Human), UniProt Q99500); assay: Receptor [35S] GTPγS Binding Assay, S1P3; type: biochemical; details: membranes from EDG3-Ga15-bla HEK293T cells; * detection limit 62,500 nM, ** detection limit 32,500 nM
# Method: (§1) Receptor [35S] GTPγS Binding Assays
# (§2) Compounds were loaded in a 384 FALCON® v-bottom plate (0.5 μl/well in a 3-fold dilution). Membranes prepared from S1P1/CHO cells or EDG3-Ga15-bla HEK293T cells were added to the compound plate (40 μl/well, final protein 3 μg/well) with MULTIDROP®. [^35S]GTP (1250 Ci/mmol, Perkin Elmer) was diluted in assay buffer: 20 mM HEPES, pH7.5, 10 mM MgCl2, 150 mM NaCl, 1 mM EGTA, 1 mM DTT, 10 μM GDP, 0.1% fatty acid free BSA, and 10 μg/ml Saponin to 0.4 nM. 40 μl of the [^35S] GTP solution was added to the compound plate with a final concentration of 0.2 nM. The reaction was kept at room temperature for 45 min. At the end of incubation, all the mixtures in the compound plate were transferred to a 384 well FB filter plates via GPCR robot system. The filter plate was washed with water 4 times by using the modified manifold Embla plate washer and dried at 60° C. for 45 min. 30 μl of MicroScint 20 scintillation fluid was added to each well for counting at Packard TOPCOUNT®. EC50 is defined as the agonist concentration that corresponds to 50% of the Ymax (maximal response) obtained for each individual compound tested.
# A smaller value for GTPγS S1P1 EC50 value indicated greater activity for the compound in the GTPγS S1P1 binding assay. A larger value for the GTPγS S1P3 EC50 value indicated less activity in the GTPγS S1P3 binding assay.
# S1P1 [1] = molecular target: T1, S1P1 (Homo sapiens (Human), UniProt P21453); assay: S1P1 Binding Assay; details: membranes from CHO cells expressing human S1P1; 33P-S1P ligand; rounded to two digits
# T1 sequence (P21453 whole entry): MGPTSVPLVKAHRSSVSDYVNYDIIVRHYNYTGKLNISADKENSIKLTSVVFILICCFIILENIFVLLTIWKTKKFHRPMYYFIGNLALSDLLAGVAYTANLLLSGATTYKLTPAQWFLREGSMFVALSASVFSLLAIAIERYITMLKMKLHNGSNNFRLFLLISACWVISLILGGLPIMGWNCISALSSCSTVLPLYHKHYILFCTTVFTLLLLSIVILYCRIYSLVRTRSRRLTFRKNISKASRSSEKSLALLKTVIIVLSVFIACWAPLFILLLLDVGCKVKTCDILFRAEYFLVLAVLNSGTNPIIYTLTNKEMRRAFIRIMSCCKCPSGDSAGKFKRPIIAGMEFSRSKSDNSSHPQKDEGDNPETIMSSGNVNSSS
# Method: Membranes were prepared from CHO cells expressing human S1P1. Cells were dissociated in buffer containing 20 mM HEPES, pH 7.5, 50 mM NaCl, 2 mM EDTA and Protease Inhibitor cocktail (Roche), and disrupted on ice using the Polytron homogenizer. The homogenate was centrifuged at 20,000 rpm (48,000 G) and the supernatant was discarded. The membrane pellets were resuspended in buffer containing 50 mM HEPES, pH 7.5, 100 mM NaCl, 1 mM MgCl2, 2 mM EDTA and stored in aliquots at −80° C. after protein concentration determination. Membranes (2 μg/well) and 0.03 nM final concentration of ^33P-S1P ligand (1 mCi/ml, American Radiolabeled Chemicals) were added to the compound plates. Binding was performed for 45 minutes at room temperature, terminated by collecting the membranes onto GF/B filter plates, and radioactivity was measured by TOPCOUNT®. The competition data of the test compounds over a range of concentrations was plotted as percentage inhibition of radioligand specific binding. The IC50 is defined as the concentration of competing ligand needed to reduce specific binding by 50%.
# The results in Table A were rounded to two digits.
# S1P1 [2] = molecular target: T1, S1P1; assay: Receptor [35S] GTPγS Binding Assay, S1P1; type: biochemical; details: for EC50: membranes from S1P1/CHO cells, [35S]GTP; for GTPγS S1P3/S1P1: ratio of GTPγS S1P3 EC50 to GTPγS S1P1 EC50, * and ** S1P3 value at detection limit
# Method: as §1
# as §2, with “Membranes” for “Compounds were loaded in a 384 FALCON® v-bottom plate (0.5 μl/well in a 3-fold dilution). Membranes”, “TOPCOUNT®.” for “TOPCOUNT®. EC50 is defined as the agonist concentration that corresponds to 50% of the Ymax (maximal response) obtained for each individual compound tested.”
# A larger value for the GTPγS S1P3 EC50 value indicated less activity in the GTPγS S1P3 binding assay.
# circulating lymphocytes = assay: Blood Lymphocyte Reduction Assay (BLR) in Rodents; type: in vivo; details: Rattus norvegicus, Lewis rats, oral, 4 hr, vs vehicle group
# Method: Blood Lymphocyte Reduction Assay (BLR) in Rodents
# Lewis rats were dosed orally with test article (as a solution or suspension in the vehicle) or vehicle alone (polyethylene glycol 300, “PEG300”). Blood was drawn at 4 hr by retro-orbital bleeding. Blood lymphocyte counts were determined on an ADVIA® 120 Hematology Analyzer (Siemens Healthcare Diagnostics). The results were measured as a reduction in the percentage of circulating lymphocytes as compared to the vehicle treated group at the 4 hr measurement. The results represent the average results of all animals within each treatment group (n=3-4).
# The following examples were tested in the Blood Lymphocyte Reduction assay (BLR) described hereinabove and the results are shown in Table D for rats.
# Chain of S1P3 (Q99500 whole entry): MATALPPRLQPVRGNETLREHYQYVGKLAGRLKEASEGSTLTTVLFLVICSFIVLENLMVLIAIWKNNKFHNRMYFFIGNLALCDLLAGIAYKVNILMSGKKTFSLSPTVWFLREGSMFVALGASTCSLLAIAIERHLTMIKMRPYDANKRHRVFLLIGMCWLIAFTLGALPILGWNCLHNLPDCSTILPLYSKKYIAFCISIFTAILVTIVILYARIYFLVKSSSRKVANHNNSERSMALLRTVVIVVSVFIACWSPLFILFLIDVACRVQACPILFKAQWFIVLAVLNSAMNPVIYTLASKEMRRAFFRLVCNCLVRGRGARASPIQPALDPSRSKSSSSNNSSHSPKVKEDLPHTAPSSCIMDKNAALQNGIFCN
SMILES,EC50 (S1P3) [nM],IC50 (S1P1 [1]) [nM],EC50 (S1P1 [2]) [nM],GTPγS S1P3/S1P1 (S1P1 [2]),inhibition in vivo at 3 mg/kg (circulating lymphocytes) [%],inhibition in vivo at 1 mg/kg (circulating lymphocytes) [%]
"O=C(NCCC(=O)N1CC(O)C1)C(O)c1ccc(-c2noc(-c3onc(-c4ccccc4)c3C(F)(F)F)n2)cc1 (racemic) [Example 93, (R/S)-2-Hydroxy-N-(3-(3-hydroxyazetidin-1-yl)-3-oxopropyl)-2-(4-(5-(3-phenyl-4-(trifluoromethyl)isoxazol-5-yl)-1,2,4-oxadiazol-3-yl)phenyl)acetamide]",12000,2.9,5.8,2060,73,
"CC(C)(O)CNC(=O)CCNC(=O)C(O)c1ccc(-c2noc(-c3onc(-c4ccccc4)c3C(F)(F)F)n2)cc1 (single isomer, unassigned) [Example 6, 3-(2-Hydroxy-2-(4-(5-(3-phenyl-4-(trifluoromethyl)isoxazol-5-yl)-1,2,4-oxadiazol-3-yl)phenyl)acetamido)-N-(2-hydroxy-2-methylpropyl)propanamide]",3130,0.46,0.67,4679,73,
"Cc1nnc(CNC(=O)C(O)c2ccc(-c3noc(-c4onc(-c5ccccc5)c4C(F)(F)F)n3)cc2)o1 (single isomer, unassigned) [Example 10, 2-Hydroxy-N-((5-methyl-1,3,4-oxadiazol-2-yl)methyl)-2-(4-(5-(3-phenyl-4-(trifluoromethyl)isoxazol-5-yl)-1,2,4-oxadiazol-3-yl)phenyl)acetamide]",13100,2,4.7,2795,,
"O=C(NCc1ncc[nH]1)C(O)c1ccc(-c2noc(-c3onc(-c4ccccc4)c3C(F)(F)F)n2)cc1 (single isomer, unassigned) [Example 17, N-((1H-Imidazol-2-yl)methyl)-2-hydroxy-2-(4-(5-(3-phenyl-4-(trifluoromethyl)isoxazol-5-yl)-1,2,4-oxadiazol-3-yl)phenyl)acetamide-TFA]",6910,6.7,6.7,1031,69,
"O=C(NC1CNC1)C(O)c1ccc(-c2noc(-c3onc(-c4ccccc4)c3C(F)(F)F)n2)cc1 (single isomer, unassigned) [Example 30, N-(Azetidin-3-yl)-2-hydroxy-2-(4-(5-(3-phenyl-4-(trifluoromethyl)isoxazol-5-yl)-1,2,4-oxadiazol-3-yl)phenyl)acetamide-TFA]",> 31200,4.5,50.9,> 614**,,
"N#CC1(NC(=O)C(O)c2ccc(-c3noc(-c4onc(-c5ccccc5)c4C(F)(F)F)n3)cc2)CC1 (single isomer, unassigned) [Example 41, N-(1-Cyanocyclopropyl)-2-hydroxy-2-(4-(5-(3-phenyl-4-(trifluoromethyl)isoxazol-5-yl)-1,2,4-oxadiazol-3-yl)phenyl)acetamide]",3640,2.6,15.7,232,,80
"O=C(NCCO)C(O)c1ccc(-c2noc(-c3onc(-c4ccccc4)c3C(F)(F)F)n2)cc1 (single isomer, unassigned) [Example 71, 2-Hydroxy-N-(2-hydroxyethyl)-2-(4-(5-(3-phenyl-4-(trifluoromethyl)isoxazol-5-yl)-1,2,4-oxadiazol-3-yl)phenyl)acetamide]",10500,0.85,2,5234,,71
"CN(C)C(=O)CCNC(=O)C(O)c1ccc(-c2noc(-c3onc(-c4ccccc4)c3C(F)(F)F)n2)cc1 (single isomer, unassigned) [Example 74, 3-(2-Hydroxy-2-(4-(5-(3-phenyl-4-(trifluoromethyl)isoxazol-5-yl)-1,2,4-oxadiazol-3-yl)phenyl)acetamido)-N,N-dimethylpropanamide]",3430,0.3,1.9,1805,84,
"O=C(NC1CCS(=O)(=O)C1)C(O)c1ccc(-c2noc(-c3onc(-c4ccccc4)c3C(F)(F)F)n2)cc1 (centres unmarked) [Example 31, 2-Hydroxy-2-(4-(5-(3-phenyl-4-(trifluoromethyl)isoxazol-5-yl)-1,2,4-oxadiazol-3-yl)phenyl)-N-(3,3-dioxide-tetrahydrothiophen-3-yl)acetamide]",9540,4.5,11.9,802,,54
"C[C@@H](C#N)NC(=O)C(O)c1ccc(-c2noc(-c3onc(-c4ccccc4)c3C(F)(F)F)n2)cc1 (stereo partly drawn) [Example 40, N-((S)-1-Cyanoethyl)-2-hydroxy-2-(4-(5-(3-phenyl-4-(trifluoromethyl)isoxazol-5-yl)-1,2,4-oxadiazol-3-yl)phenyl)acetamide]",,,,,,80
